The target in the test is T1, renin (human plasma) (Homo sapiens, UniProt P00797).
T1 construct: from tissue; host or cells: human plasma
T1 sequence (P00797 67-406): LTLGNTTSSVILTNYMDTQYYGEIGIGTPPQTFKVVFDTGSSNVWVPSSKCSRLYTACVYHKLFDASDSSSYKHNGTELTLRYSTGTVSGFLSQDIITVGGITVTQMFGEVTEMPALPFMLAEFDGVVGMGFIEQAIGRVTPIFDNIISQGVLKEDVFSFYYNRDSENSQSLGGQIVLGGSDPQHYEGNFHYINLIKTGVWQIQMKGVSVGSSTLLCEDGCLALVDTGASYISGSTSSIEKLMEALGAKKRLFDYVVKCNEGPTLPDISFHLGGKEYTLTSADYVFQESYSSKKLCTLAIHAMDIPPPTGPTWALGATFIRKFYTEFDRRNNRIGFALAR
In words: Test example for renin inhibiting activities: angiotensin I formation in human plasma, measured by radio immunoassay. The test is classed as biochemical. The following applies: 0.2M sodium phosphate buffer pH7.4, 37° C. for one hour, read-out: IC50 (mol), 50% inhibition concentration of renin inhibiting activity. As to the method: To 156 μl of a 0.2M sodium phosphate buffer solution (pH7.4), 40 μl of a solution mixture of 34 mM 8-hydroxyquinoline and 100 mM disodium ethylenediaminetetraacetate, 4 μl of dimethyl sulfoxide or a dimethyl sulfoxide solution of an inhibitor and 200 μl of human plasma were added and reacted at 37° C. for one hour. Then, pepstatin was added thereto to terminate the reaction, and the amount of the resulting angiotension I was measured by radio immunoassay whereby the inhibiting activity was determined.
As for `CCCCC(NC(=O)C(Cc1cccc2ccccc12)NC(=O)OCc1ccccc1)C(=O)N[C@@H](CC(C)C)[C@@H](O)CC(CCCO)C(=O)NCC(C)C` (mixture of isomers) [Example 14(8), (2RS,4S,5S)-5-(L-N-benzyloxycarbonylnaphthylalanyl-L-norleucyl)amino-4-hydroxy-2-(3-hydroxypropyl)-7-methyl-octanoic acid isobutylamide], the IC50 was determined as 5 nM. The value for `CCCCC(NC(=O)C(Cc1cccc2ccccc12)NC(=O)OCc1ccccc1)C(=O)N[C@@H](CC(C)C)[C@@H](O)CC(C(=O)NCC(C)C)C(C)C` (mixture of isomers) [comparative compound, (2RS,4S,5S)-5-(L-N-benzyloxycarbonyl-naphthylalanyl-L-norleucyl)amino-4-hydroxy-2-isopropyl-7-methyl-octanoic acid isobutylamide, reference compound] was 40 nM. In the case of “(2RS,4S,5S)-5-(L-N-benzyloxycarbonylnaphthylalanyl-L-norleucyl)amino-4-hydroxy-2-(2-hydroxyethyl)-7-methyloctanoic acid isobutylamide [Example 15(3)]”, the IC50 was determined as 7 nM.
